From patent US8592451B2, “Reversible nondepolarizing neuromuscular blockade agents and methods for their use” (Cornell University, priority 2009, dated 2013)
Entries after “also recorded” stand apart in the source; their conditions may differ.

Assays:
[1] = system: twitch contractions of the extensor digitorum muscle; assay: Rhesus monkey anesthesia bioassay for potency and duration (substituent and stereochemical comparison, preliminary studies); format: in vivo; settings: rhesus monkeys
Experimental: Two stereoisomeric structures, CW 002 (R-trans, R-trans), and CW 003 (R-cis, R-cis) were tested in the rhesus monkey anesthesia bioassay for potency and duration. A third compound, CW 001 (R-trans, R-trans) bearing an additional methoxyl group on each of the two benzyl groups in the molecule, was also tested.
Rhesus monkeys were anesthetized with ketamine (7.5 mg/Kg) given intramuscularly or intravenously. Anesthesia was maintained with a mixture of isoflurane (1.5%), nitrous oxide (60%) and oxygen (40%). The common peroneal nerve was stimulated supramaximally with square wave pulses of 0.2 m sec duration at a rate of 0.15 Hz. Twitch contractions were recorded via the tendon of the extensor digitorum muscle.
In all animals, the trachea was intubated and ventilation was controlled at 12-15 ml/kg, 18-24 breaths per minute. A peripheral vein and artery were cannulated for drug administration and for recording of arterial pressure, respectively. In preliminary studies a neuromuscular blocking agent having one of the following structures was administered intravenously.

[2] = L-cysteine adduction kinetics in vitro (HPLC); format: physicochemical; settings: pH 7.4, 37° C.; for NMBA peak area / [NMBA] remaining / ln* = ln (([NMBA]t[L-cysteine]t=0)/([NMBA]t=0[L-cysteine]t)): CW 002 1000 μg/mL + 1.05 equiv. L-cysteine
Experimental: In a second experiment, to evaluate degradation in the presence of L-cysteine, buffered solutions (pH 7.4) of gantacurium, CW 002 or CW 011 were freshly prepared at 37° C. to give experimental concentrations of 1000 μg/mL (CW 002 and CW 011) and 200 μg/mL (gantacurium), after addition to and mixing with a 5% Molar excess of L-cysteine at time=0.
The concentration of neuromuscular blocking agent/parent compound remaining at specified time points after mixing was determined by high performance liquid chromatography. The concentration of blocking agent at each time point was determined from a separately prepared reaction mixture, due to the rapid rate of L-cysteine adduction. The reaction rate constant for the second order reaction of each neuromuscular blockade agent (NMBA) with L-cysteine was derived by plotting the natural log of ([NMBA]t[L-cysteine]t=0/[NMBA]t=0[L-cysteine]t) vs. time.
Concentrations selected were 200, 100 and 50 μg/ml which are approximately proportional to the relative potencies (ED 95) of gantacurium, CW 002 and CW 011 respectively. A degradation (adduction) pathway in the presence of L-cysteine for each of the three compounds was proposed.
The reaction of L-cysteine with CW 002, CW 011 or gantacurium is first order in the case of both the neuromuscular blockade agent (NMBA) and L-cysteine, represented by the rate equation (1). d[Adduct]/dt=−d[NMBA]/dt=ka[NMBA][L-cysteine] (1)
Calculation of the L-cysteine adduction half time requires experimental derivation of the reaction rate constant, ka, for each compound. The initial concentrations of NMBA and L-cysteine are unequal in the experiments conducted for this study, thus integration of equation 1 gives equation 2, where [NMBA]0 is the NMBA concentration at time equals 0 and [NMBA]t is the NMBA concentration at a time point, t.
[formula] A plot of the ln(([NMBA]t [L-cysteine]0)/([NMBA]0 [L-cysteine]t)) versus time (ln* vs. t) gives a line, with slope equal to ka([NMBA]0−[L-cysteine]0). An adduction reaction half time can be calculated by solving for ka to be used in equation 3.
NMBA standard solutions were prepared by a method similar to that used to prepare hydrolysis standards. The standards were prepared at 1000 μg/mL for CW 002 and CW 011 and 200 μg/mL for gantacurium.
Solutions used for determination of NMBA concentration at the reported times for CW 002 and CW 011 were prepared as follows: L-cysteine hydrochloride monohydrate was charged to a volumetric flask in de-ionized water. A 5 mL aliquot of the L-cysteine solution (1.05 equiv. L-cysteine with respect to NMBA) was transferred by volumetric pipette to a flask held at 37.0±0.3° C. CW 002 or CW 011 was then charged to a separate 25 mL volumetric flask and diluted to volume with pH 7.4 phosphate buffer at 37.0° C. The NMBA solution was then immediately transferred to the flask containing L-cysteine to give an initial NMBA concentration of 1000 μg/mL. Solutions used for determination of gantacurium concentration versus time were prepared in a similar manner to give an initial concentration of 200 μg/mL. T=0 was defined as the time of addition of NMBA solution to L-cysteine solution. The times listed in the results table show the point of HPLC sample injection following mixing of L-cysteine and NMBA at time=0 (Table 1, below).
Rate constants were calculated using equation (3) and the slope of the trend line derived from each data set. The strong linear correlation of the data within each set supports the use of second order kinetics for analysis of the cysteine adduction reactions.
Reaction half times were calculated using equation 4 and the experimentally determined rate constants. The initial NMBA concentrations were chosen to reflect the relative potency observed in vivo.

[3] = system: twitch of the extensor digitorum; assay: Reversal of neuromuscular blockade by L-cysteine or neostigmine in anesthetized rhesus monkeys; format: in vivo, rhesus monkeys (Macaca mulatta)
Experimental: A control dose of 0.15 mg/kg CW 002 was allowed to recover spontaneously to TOF 110-120%. A second dose was given 60 minutes later, followed one minute afterwards by either neostigmine (0.05 mg/kg+atropine 0.05 mg/kg) or L-cysteine (10, 20, 30 or 50 mg/kg). Total duration and 5-95% recovery intervals were compared during spontaneous recovery vs. antagonism by L-cysteine or reversal by neostigmine.
This series of paired comparisons was designed to generate dose-response data comparing spontaneous recovery of high doses of CW 011 (from 4 to 64× ED95) versus immediate antagonism at +1 min by an optimal dose of L-cysteine (50 mg/kg), previously determined during studies of immediate antagonism of CW 002. This experiment was done to explore the limits of chemical antagonism by L-cysteine of these olefinic diester neuromuscular blocking drugs, using CW 011 as a typical example with an intermediate duration of action. Five groups of animals first received a control dose of CW 011 at 4, 8, 16, 32 or 64× ED 95 (0.1 to 1.6 mg/kg). Sixty minutes after spontaneous recovery of the control dose to TOF 110-120%, the same dose was repeated, followed 1 min later by L-cysteine (50 mg/kg). Total duration of action and 5-95% recovery interval were compared during spontaneous recovery and following antagonism by L-cysteine
The reversal of neuromuscular blockade by cysteine (5-50 mg/kg i.v.) was studied. Reversal was tested as follows: full paralysis was induced by injection of a dose of approximately 2-6× ED 95 of the compound in question. After spontaneous recovery of this dose, a second identical dose was given 15-30 min later. Cysteine was then given at +1 min after injection of the neuromuscular blocking drug at a point where no twitch was apparent (“immediate reversal”) or at the beginning of recovery from neuromuscular blockade at two percent twitch height (“classical reversal”). Comparisons were made among compounds with respect to rapidity and ease of cysteine reversal, by comparing 5-95% recovery times, and total durations of action (injection to 95% twitch recovery). Spontaneous recovery was compared with cysteine-accelerated recovery. […]

Compound: COc1ccc(C[C@@H]2c3cc(OC)c(OC)cc3CC[N@@+]2(C)CCCOC(=O)/C=C/C(=O)OCCC[N@+]2(C)CCc3cc(OC)c(OC)cc3[C@H]2Cc2ccc(OC)c(OC)c2)cc1OC [CW 002]
- reversibility of effect by cysteine or glutathione [1]: reversible
- Potency (ED95 mg/kg) ([1]; intravenously, preliminary studies): 0.04 mg/kg
- Duration at 4X ED95 ([1]; preliminary studies, 4X ED95, head prints no unit (column beside it: minutes)): 30-35
- Duration (minutes), from injection to 95% twitch recovery ([1]; preliminary studies, dose not printed (beside ED95 column)): 20 to 25 min
- NMBA peak area ([2]; Trial 1, 142 Sec): 2746.0 mAU's
- [NMBA] remaining ([2]; Trial 1, 142 Sec): 224 µM
- ln* = ln (([NMBA]t[L-cysteine]t=0)/([NMBA]t=0[L-cysteine]t)) ([2]; Trial 1, 142 Sec): −0.240
- NMBA peak area ([2]; Trial 2, 170 Sec): 2350.7 mAU's
- [NMBA] remaining ([2]; Trial 2, 170 Sec): 192 µM
- ln* = ln (([NMBA]t[L-cysteine]t=0)/([NMBA]t=0[L-cysteine]t)) ([2]; Trial 2, 170 Sec): −0.277
- NMBA peak area ([2]; Trial 3, 188 Sec): 2237.9 mAU's
- [NMBA] remaining ([2]; Trial 3, 188 Sec): 183 µM
- ln* = ln (([NMBA]t[L-cysteine]t=0)/([NMBA]t=0[L-cysteine]t)) ([2]; Trial 3, 188 Sec): −0.297
- Plot Slope (ln* vs. time) ([2]; L-cysteine adduction, data of Table 1): −0.0012
- ka, second order rate constant of L-cysteine adduction [2]: 14.3 M⁻¹ s⁻¹
- half-life at 100 μg/ml ([2]; pH 7.4 phosphate buffer with L-cysteine, calculated at [NMBA]0 0.000102 M (100 μg/ml), read-out: L-cysteine adduction reaction half time t1/2): 11.4 min
- immediate antagonism of blockade by L-cysteine (FIG. 1B) ([3]; CW 002 0.15 mg/kg (~4× ED 95), L-cysteine 10, 20, 30 or 50 mg/kg at +1 min): dose-related acceleration of recovery
- immediate antagonism of blockade by neostigmine (FIG. 1A) ([3]; CW 002 0.15 mg/kg (~4× ED 95), neostigmine 0.05 mg/kg + atropine 0.05 mg/kg at +1 min): not achieved significantly faster than the spontaneous reversal; also recorded: did not shorten recovery
- time to reversal of blockade with cysteine (FIG. 1B) ([3]; CW 002 0.15 mg/kg, all cysteine concentrations tested (10 to 50 mg/kg)): less than 6 minutes
- time from cysteine administration to beginning of reversal (FIG. 1B) ([3]; CW 002 0.15 mg/kg, higher cysteine doses): 2 to 3 min
- time to spontaneous reversal of blockade (FIG. 1) ([3]; CW 002 0.15 mg/kg, no reversal agent): more than 12 minutes
- reversibility of neuromuscular blockade by thiol compounds ([3]; cysteine (L or D) or glutathione): reversible
- effect of neostigmine given immediately after the blocking drug ([3]; immediate reversal): ineffective
- classical antagonism of neuromuscular blockade by neostigmine ([3]; neostigmine given at beginning of spontaneous recovery, e.g. at 2% twitch height): showed antagonism
